Results: patent publication US10100058B2, “Fused heterocyclic compounds as CaM kinase inhibitors” (Gilead Sciences, Inc., priority 2016, dated 2018)

Biological target: recombinant CaMKIIδ (Homo sapiens (Human), UniProt Q13557)
Experiment: CaMKIIδ biochemical assay (HTRF)
Settings: 10 pM CaMKIIδ, 110 nM calmodulin, 12 μM ATP, 1 hour; read-out: CAMKIID-HTRF-384V2 (IC50 - nM)
Procedure: CaMKIIδ Biochemical Assay
The biochemical activity of recombinant CaMKIIδ was measured by monitoring the phosphorylation of a target peptide using Homogenous Time Resolved Fluorescence (HTRF) technology from CisBio Bioassays.

Row | IC50 | SMILES
1 | 0.2 nM | CCN(CC)[C@@H](C)CNC(=O)c1cc(-c2cnn3ccc(-c4cccs4)nc23)nc(N2CC[C@H]2C(=O)N2CC(S(C)(=O)=O)C2)c1 [Example 302, N—((S)-2-(diethylamino)propyl)-2-((S)-2-(3-(methylsulfonyl)azetidine-1-carbonyl)azetidin-1-yl)-6-(5-(thiophen-2-yl)pyrazolo[1,5-a]pyrimidin-3-yl)isonicotinamide]
2 | 0.16 nM | CCN(CC)[C@@H](C)CNC(=O)c1cc(-c2cnn3ccc(-c4cccs4)nc23)nc(N2CC[C@H]2C(=O)N2CCS(=O)(=O)CC2)c1 [Example 303, N—((S)-2-(diethylamino)propyl)-2-((S)-2-(1,1-dioxidothiomorpholine-4-carbonyl)azetidin-1-yl)-6-(5-(thiophen-2-yl)pyrazolo[1,5-a]pyrimidin-3-yl)isonicotinamide]
3 | 0.17 nM | CCN(CC)[C@@H](C)CNC(=O)c1cc(-c2cnn3ccc(-c4cccs4)nc23)nc(N2CC[C@H]2C(=O)N2CC(O)C2)c1 [Example 304, N—((S)-2-(diethylamino)propyl)-2-((S)-2-(3-hydroxyazetidine-1-carbonyl)azetidin-1-yl)-6-(5-(thiophen-2-yl)pyrazolo[1,5-a]pyrimidin-3-yl)isonicotinamide]
4 | 51.7 nM | CNC(=O)[C@@H]1CCN1c1cc(C(=O)NC[C@H](C)N)cc(-c2cnn3ccc(-c4cccs4)nc23)n1 [Example 305, N—((S)-2-aminopropyl)-2-((S)-2-(methylcarbamoyl)azetidin-1-yl)-6-(5-(thiophen-2-yl)pyrazolo[1,5-a]pyrimidin-3-yl)isonicotinamide]
5 | 10.6 nM | CCN[C@@H](C)CNC(=O)c1cc(-c2cnn3ccc(-c4cccs4)nc23)nc(N2CC[C@H]2C(=O)NC)c1 [Example 306, N—((S)-2-(ethylamino)propyl)-2-((S)-2-(methylcarbamoyl)azetidin-1-yl)-6-(5-(thiophen-2-yl)pyrazolo[1,5-a]pyrimidin-3-yl)isonicotinamide]
6 | 0.27 nM | CCN(CC)[C@@H](C)CNC(=O)c1cc(-c2cnn3ccc(-c4ccns4)nc23)nc(N2CC[C@H]2C(=O)NC)c1 [Example 307, N—((S)-2-(diethylamino)propyl)-2-(5-(isothiazol-5-yl)pyrazolo[1,5-a]pyrimidin-3-yl)-6-((S)-2-(methylcarbamoyl)azetidin-1-yl)isonicotinamide]
7 | 0.71 nM | CCN(CC)[C@@H](C)CNC(=O)c1cc(-c2cnn3ccc(-c4cccs4)nc23)nc(N2CC[C@H]2c2nc(C)no2)c1 [Example 308, N—((S)-2-(diethylamino)propyl)-2-((S)-2-(3-methyl-1,2,4-oxadiazol-5-yl)azetidin-1-yl)-6-(5-(thiophen-2-yl)pyrazolo[1,5-a]pyrimidin-3-yl)isonicotinamide]
8 | 2.16 nM | CCN(CC)[C@@H](C)CNC(=O)c1cc(-c2cnn3ccc(-c4ccccc4)nc23)nc(N2CC[C@H]2C(=O)NC)c1 [Example 309, N—((S)-2-(diethylamino)propyl)-2-((S)-2-(methylcarbamoyl)azetidin-1-yl)-6-(5-phenylpyrazolo[1,5-a]pyrimidin-3-yl)isonicotinamide]
9 | 0.25 nM | CCN(CC)[C@@H](C)CNC(=O)c1cc(-c2cnn3ccc(-c4cccs4)nc23)nc(N2CC[C@H](C(=O)NC)C2)c1 [Example 310, N—((S)-2-(diethylamino)propyl)-2-((S)-3-(methylcarbamoyl)pyrrolidin-1-yl)-6-(5-(thiophen-2-yl)pyrazolo[1,5-a]pyrimidin-3-yl)isonicotinamide]
10 | 0.23 nM | CCN(CC)[C@@H](C)CNC(=O)c1cc(-c2cnn3ccc(-c4cccs4)nc23)nc(N2CC[C@@H](C(=O)NC)C2)c1 [Example 311, N—((S)-2-(diethylamino)propyl)-2-((R)-3-(methylcarbamoyl)pyrrolidin-1-yl)-6-(5-(thiophen-2-yl)pyrazolo[1,5-a]pyrimidin-3-yl)isonicotinamide]
11 | 0.21 nM | CCN(CC)[C@@H](C)CNC(=O)c1cc(-c2cnn3ccc(-c4cccs4)nc23)nc(N2CC[C@@H](C#N)C2)c1 [Example 312, 2-((R)-3-cyanopyrrolidin-1-yl)-N—((S)-2-(diethylamino)propyl)-6-(5-(thiophen-2-yl)pyrazolo[1,5-a]pyrimidin-3-yl)isonicotinamide]
12 | 0.14 nM | CCN(CC)[C@@H](C)CNC(=O)c1cc(-c2cnn3ccc(-c4cccs4)nc23)nc(N2CCNC(=O)C2)c1 [Example 314, (S)—N-(2-(diethylamino)propyl)-2-(3-oxopiperazin-1-yl)-6-(5-(thiophen-2-yl)pyrazolo[1,5-a]pyrimidin-3-yl)isonicotinamide]
13 | 0.07 nM | CCN(CC)[C@@H](C)CNC(=O)c1cc(-c2cnn3ccc(-c4cccs4)nc23)nc(N2CC[C@H](N)C2)c1 [Example 317, 2-((S)-3-aminopyrrolidin-1-yl)-N—((S)-2-(diethylamino)propyl)-6-(5-(thiophen-2-yl)pyrazolo[1,5-a]pyrimidin-3-yl)isonicotinamide]
14 | 0.05 nM | CCN(CC)[C@@H](C)CNC(=O)c1cc(-c2cnn3ccc(-c4cccs4)nc23)nc(N2CC[C@@H](N)C2)c1 [Example 318, 2-((R)-3-aminopyrrolidin-1-yl)-N—((S)-2-(diethylamino)propyl)-6-(5-(thiophen-2-yl)pyrazolo[1,5-a]pyrimidin-3-yl)isonicotinamide]
15 | 3.02 nM | CCN(CC)[C@@H](C)CNC(=O)c1cc(-c2cnn3ccc(-c4cccs4)nc23)nc(N2CCC[C@H]2C(=O)NC)c1 [Example 319, N—((S)-2-(diethylamino)propyl)-2-((S)-2-(methylcarbamoyl)pyrrolidin-1-yl)-6-(5-(thiophen-2-yl)pyrazolo[1,5-a]pyrimidin-3-yl)isonicotinamide]
16 | 32.8 nM | CCN(CC)[C@@H](C)CNC(=O)c1cc(-c2cnn3ccc(-c4cccs4)nc23)nc(N2CCC[C@@H]2C(=O)NC)c1 [Example 320, N—((S)-2-(diethylamino)propyl)-2-((R)-2-(methylcarbamoyl)pyrrolidin-1-yl)-6-(5-(thiophen-2-yl)pyrazolo[1,5-a]pyrimidin-3-yl)isonicotinamide]
17 | 91.9 nM | COC1CN(c2cc(C(=O)N3CC[C@H](N)C3)cc(-c3cnn4ccc(-c5ccccc5)nc34)n2)C1 [Example 328, (S)-(3-aminopyrrolidin-1-yl)(2-(3-methoxyazetidin-1-yl)-6-(5-phenylpyrazolo[1,5-a]pyrimidin-3-yl)pyridin-4-yl)methanone]
18 | 0.08 nM | CCN(CC)[C@@H](C)CNC(=O)c1cc(-c2cnn(C)c2)nc(-c2cnn3ccc(-c4cccs4)nc23)c1 [Example 331, (S)—N-(2-(diethylamino)propyl)-2-(1-methyl-1H-pyrazol-4-yl)-6-(5-(thiophen-2-yl)pyrazolo[1,5-a]pyrimidin-3-yl)isonicotinamide]
19 | 0.24 nM | CCN(CC)[C@@H](C)CNC(=O)c1cc(-c2c(C)n[nH]c2C)nc(-c2cnn3ccc(-c4cccs4)nc23)c1 [Example 332, (S)—N-(2-(diethylamino)propyl)-2-(3,5-dimethyl-1H-pyrazol-4-yl)-6-(5-(thiophen-2-yl)pyrazolo[1,5-a]pyrimidin-3-yl)isonicotinamide]
20 | 0.22 nM | CCN(CC)[C@@H](C)CNC(=O)c1cc(-c2c[nH]nc2C)nc(-c2cnn3ccc(-c4cccs4)nc23)c1 [Example 333, (S)—N-(2-(diethylamino)propyl)-2-(3-methyl-1H-pyrazol-4-yl)-6-(5-(thiophen-2-yl)pyrazolo[1,5-a]pyrimidin-3-yl)isonicotinamide]
21 | 0.19 nM | CCN(CC)[C@@H](C)CNC(=O)c1cc(-c2c[nH]nc2C(F)(F)F)nc(-c2cnn3ccc(-c4cccs4)nc23)c1 [Example 334, (S)—N-(2-(diethylamino)propyl)-2-(5-(thiophen-2-yl)pyrazolo[1,5-a]pyrimidin-3-yl)-6-(3-(trifluoromethyl)-1H-pyrazol-4-yl)isonicotinamide]

Row | SMILES | IC50
22 | CC(C)(O)CNc1cc(C(=O)N2CC3CCC(C2)NC3)cc(-c2cnn3ccc(-c4cccs4)nc23)n1 (stereo not drawn) [Example 322, (-3,6-diazabicyclo[3.2.2]nonan-3-yl)(2-((2-hydroxy-2-methylpropyl)amino)-6-(5-(thiophen-2-yl)pyrazolo[1,5-a]pyrimidin-3-yl)pyridin-4-yl)methanone] | 5.01 nM
23 | COCCNc1cc(C(=O)N2CC3CCC(C2)NC3)cc(-c2cnn3ccc(-c4cccs4)nc23)n1 (stereo not drawn) [Example 323, (-3,6-diazabicyclo[3.2.2]nonan-3-yl)(2-((2-methoxyethyl)amino)-6-(5-(thiophen-2-yl)pyrazolo[1,5-a]pyrimidin-3-yl)pyridin-4-yl)methanone] | 3.22 nM
24 | O=C(c1cc(-c2cnn3ccc(-c4cccs4)nc23)nc(N2CCN(C3COC3)CC2)c1)N1CC2CCC(C1)NC2 (stereo not drawn) [Example 324, (-3,6-diazabicyclo[3.2.2]nonan-3-yl)(2-(4-(oxetan-3-yl)piperazin-1-yl)-6-(5-(thiophen-2-yl)pyrazolo[1,5-a]pyrimidin-3-yl)pyridin-4-yl)methanone] | 3.59 nM
25 | COC1CN(c2cc(C(=O)N3CC4CCC(C3)NC4)cc(-c3cnn4ccc(-c5cccs5)nc34)n2)C1 (stereo not drawn) [Example 325, (-3,6-diazabicyclo[3.2.2]nonan-3-yl)(2-(3-methoxyazetidin-1-yl)-6-(5-(thiophen-2-yl)pyrazolo[1,5-a]pyrimidin-3-yl)pyridin-4-yl)methanone] | 2.19 nM
26 | COC1CN(c2cc(C(=O)N3[C@H]4CCNC[C@@H]3CC4)cc(-c3cnn4ccc(-c5cccs5)nc34)n2)C1 [Example 326, ((1S,6R)-3,9-diazabicyclo[4.2.1]nonan-9-yl)(2-(3-methoxyazetidin-1-yl)-6-(5-(thiophen-2-yl)pyrazolo[1,5-a]pyrimidin-3-yl)pyridin-4-yl)methanone] | 3.29 nM
27 | COC1CN(c2cc(C(=O)N3CC4CCC(C3)NC4)cc(-c3cnn4ccc(-c5ccccc5)nc34)n2)C1 (stereo not drawn) [Example 329, (-3,6-diazabicyclo[3.2.2]nonan-3-yl)(2-(3-methoxyazetidin-1-yl)-6-(5-phenylpyrazolo[1,5-a]pyrimidin-3-yl)pyridin-4-yl)methanone] | 14.1 nM
